{
  "source": "paper PMC11537999",
  "about": "“Identification of human pregnane X receptor antagonists utilizing a high-throughput screening platform” (Frontiers in Pharmacology, 2024)",
  "data": [
    {"test_system": "CYP3A4 mRNA expression", "test": "CYP3A4 mRNA expression by qRT-PCR in HepaRG cells treated with compound alone", "assay_type": "cell-based, human", "settings": "24 h, compound at its IC70 concentration, vs DMSO", "method": "Fully differentiated NoSpin™ HepaRG™ cells (Lonza, Walkersville, Maryland) were seeded into 12-well collagen-coated plates (Corning) at a density of 8 × 10^5 cells/well using Williams’ E medium (ThermoFisher) supplemented with HepaRG™ thawing and plating medium supplement (Lonza), 25 U/mL penicillin, and 25 μg/mL streptomycin (Invitrogen). The cells were then placed into a 37°C and 5% CO2 incubator for 3 days including a media change before treatment. Cells were then treated with the vehicle control (final concentration of 0.1% DMSO), the positive controls, or test compounds for 24 h before harvesting.\nTotal RNA was extracted from the cell lysate using an RNeasy Mini kit (Qiagen) according to the manufacturer’s instructions. RNA was reverse transcribed to cDNA using a High-Capacity RNA-to-cDNA kit (Applied Biosystems). CYP3A4 and CYP2B6 mRNA expression were both measured and normalized to the glyceraldehyde-3-phosphate dehydrogenase (GAPDH) housekeeping gene. Real-time PCR was completed using a QuantStudio Real-Time PCR system (Applied Biosystems) with TaqMan probes (CYP3A4 Assay ID: Hs00604506_m1, CYP2B6 Assay ID: Hs04183483_g1, GAPDH Assay ID: Hs99999905_m1, ThermoFisher Scientific, Waltham, MA). Following amplification, induction values were calculated using the equation: Fold = 2^−ΔΔCt, where ΔCt represents the difference in number of cycles required to reach the Ct threshold between CYP3A4 or CYP2B6 and GAPDH, and ΔΔCt represents the relative change in these differences between the control (DMSO) and treatment groups. Experimental data are expressed as a mean of triplicate values ±SD. Statistical analysis was performed using one-way analysis of variance with post hoc Dunnett’s analysis. The statistical significance values were set at p < 0.05 (*), p < 0.01 (**), and p < 0.001 (***).\nTo overcome the previous screening limitations, we used this more physiologically relevant cell line, HepaRG cells, to run follow-up studies with the PXR antagonists identified from the primary screen which used immortalized cell lines without a metabolic component. Using HepaRG cells, the 20 potential PXR antagonists were treated for 24 h and harvested for mRNA (Supplementary Figure S1).\nFIGURE 3 HepaRG cells were treated with the top 20 most promising PXR antagonists identified from the high-throughput screen. […] The concentrations for the test compounds were the IC70 values from the original NPACT screen. Real-time PCR was used to analyze the mRNA expression of CYP3A4. Each bar represents the mean ± SD in triplicate. *, p < 0.05; **, p < 0.01.", "values": [
      {"compound": "CCN(CC)C(=O)C(c1ccccc1)N1CCN(c2ccc(NC(=O)c3ccccc3-c3cccnc3)cc2F)CC1", "note": "(stereo not shown) [JNJ-31020028]", "inhibition of CYP3A4 mRNA expression (in words)": "significantly inhibited CYP3A4 mRNA expression"},
      {"compound": "CC(C)NCCCn1c(Sc2cc3c(cc2I)OCO3)nc2c(N)ncnc21", "note": "[PU-H71]", "inhibition of CYP3A4 mRNA expression (in words)": "significantly inhibited CYP3A4 mRNA expression"},
      {"compound": "CCCCCOc1cc2c(cc1-c1cc(/C=C/C(=O)O)ccc1O)C(C)(C)CCC2(C)C", "note": "[UVI 3003]", "inhibition of CYP3A4 mRNA expression (in words)": "generated CYP3A4 inhibition but not to a significant degree"}
    ]},
    {"target": "T1, hPXR (Homo sapiens, UniProt O75469)", "T1 construct": "expressed in transfected cells; provided by Dr. Taosheng Chen, St. Jude", "T1 sequence (O75469 1-434)": "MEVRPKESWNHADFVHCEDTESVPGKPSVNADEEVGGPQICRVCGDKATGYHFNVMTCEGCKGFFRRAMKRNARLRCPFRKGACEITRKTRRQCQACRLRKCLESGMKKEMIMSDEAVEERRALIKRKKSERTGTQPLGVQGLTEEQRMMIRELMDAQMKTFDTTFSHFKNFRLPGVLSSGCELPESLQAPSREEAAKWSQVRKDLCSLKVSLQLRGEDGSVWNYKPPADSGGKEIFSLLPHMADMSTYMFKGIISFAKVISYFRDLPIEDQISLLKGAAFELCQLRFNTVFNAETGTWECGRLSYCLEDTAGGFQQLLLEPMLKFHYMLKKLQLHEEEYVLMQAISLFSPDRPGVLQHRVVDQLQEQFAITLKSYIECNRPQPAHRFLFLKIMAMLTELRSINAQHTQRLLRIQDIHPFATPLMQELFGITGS", "test": "Pharmacological inhibition (IC50 shift) assay with varying rifampicin in HepG2-CYP3A4-hPXR cells", "assay_type": "cell-based", "settings": "co-treated with 2 µM versus 10 µM rifampicin", "method": "(§1) HepG2-CYP3A4-hPXR cells were dispensed into tissue culture treated 1536-well white assay plates (Greiner Bio-One North America, Monroe, NC) using a Multidrop Combi (Thermo Fisher Scientific Inc., Waltham, Massachusetts) at 2,500 cells/4 µL/well. The cell suspension was prepared using new assay media, which contained phenol red-free DMEM (GIBCO), 5% charcoal/dextran-treated FBS (Invitrogen), 1 mM sodium pyruvate (Invitrogen), 2 mM L-Glutamine (Invitrogen), and 100 U/mL of Penicillin and 100 μg/mL of Streptomycin (Invitrogen). All plates were then incubated for 4 h in a 37°C and 5% CO2 incubator. […] In the primary screen, each compound was tested at 7 concentrations ranging from 46 μM to 1.5 nM. 1 μL of rifampicin, a known PXR agonist, was also co-treated in each well, generating a final concentration of 2 μM, using a Flying Reagent Dispenser (Aurora Discovery, Carlsbad, California). All assay plates were placed in an incubator at 37°C with 5% CO2 for 23 h. Following the incubation period, 1 µL of CellTiter-Fluor reagent (Promega, Madison, Wisconsin) was added to each well and all assay plates were placed back into the incubator set at 37°C and 5% CO2 for 1 h. Fluorescence intensity at 540 nm was measured following excitation at 405 nm using a ViewLux plate reader (Perkin Elmer, Shelton, Connecticut), in order to assess cell viability following treatment. Directly after the fluorescent read, 4 μL of ONE-Glo Luciferase reagent (Promega, Madison, Wisconsin) was added to each well using a Flying Reagent Dispenser, and plates were left to sit at room temperature for 30 min. The luminescence of each plate was then measured using the ViewLux plate reader and data were expressed as relative luminescence units. Gross assay performance was assessed by calculating quality metrics, such as coefficient of variance (CV), signal-to-background ratio (S/B), and Z′ factor, a measure of statistical effect size frequently used to judge whether an assay can be scaled up to a large high-throughput screen ([Zhang et al., 1999]).\nEach curve was co-treated with 5 μM RIF, 7.5 μM RIF, or 10 μM RIF (a well-known PXR agonist) to determine pharmacological activity. […] Each curve was generated from a combination of all data points together.", "values": [
      {"compound": "COc1ccc(OC)c(-n2nnc(S(=O)(=O)c3ccc(C(C)(C)C)cc3)c2C)c1", "note": "[SPA70, 4-(4-tert-Butylphenylsulfonyl)-1-(2,5-dimethoxyphenyl)-5-methyl-1H-1,2,3-triazole]", "decrease in potency": "more than 2 fold"}
    ]},
    {"target": "T1, hPXR", "test": "PXR luciferase reporter gene assay (qHTS antagonist mode, rifampicin co-treatment) in HepG2-CYP3A4-hPXR cells", "assay_type": "cell-based", "settings": "2 μM rifampicin, used as treatment concentration in HepaRG cells", "method": "HepG2 cells stably transfected with a CYP3A4-luc promoter construct and hPXR expression plasmid were provided by Dr. Taosheng Chen (Department of Chemical Biology and Therapeutics, St. Jude Children’s Research Hospital) ([Lin et al., 2008]). Cells were thawed in EMEM (ATCC, Rockville, Maryland), supplemented with 10% Hyclone FBS (GE Healthcare Life Sciences, Logan, Utah) and 100 U/mL of Penicillin and 100 μg/mL of Streptomycin (Invitrogen, Carlsbad, CA) and kept in an incubator at 37°C and 5% CO2. To culture these HepG2-CYP3A4-hPXR cells, 500 μg/mL of Geneticin (GIBCO, Gaithersburg, MD) was added to the thawing media.\nas §1\nData analysis was completed using a previously described protocol ([Huang et al., 2016]). […] Normalized percent activity for all test compounds was determined using the following equation: % activity = [(V compound - V DMSO)/(V DMSO–V pos)] × 100, where V compound denotes the compound well values, V pos denotes the median value of the positive control wells, and V DMSO denotes the median value of the DMSO-only wells. Following normalization, data points were corrected using DMSO-only plates included at the beginning and end of the compound plate stack using an in-house pattern correction algorithm in order to remove background patterns, as well as other small abnormalities within the dataset ([Southall et al., 2009]). […] Efficacy is then [a inf - a 0 ]. a=a0+ainf−a0 c^n/k^n+c^n\nCurve class was further converted to curve rank by combining each class with efficacy, such that good quality, efficacious curves are assigned large absolute curve rank values. […] The activity outcome was based on the PXR antagonist readout activity and a cell viability counter screen.", "units": {"IC70 values from the original NPACT screen": "nM"}, "values": [
      {"compound": "CN(C)c1cc2c(cc1Sc1nc3c(N)nccc3n1CCNCC(C)(C)C)OCO2", "note": "[CUDC-305]", "IC70 values from the original NPACT screen": 250},
      {"compound": "CCN(CC)C(=O)C(c1ccccc1)N1CCN(c2ccc(NC(=O)c3ccccc3-c3cccnc3)cc2F)CC1", "note": "(stereo not shown) [JNJ-31020028]", "IC70 values from the original NPACT screen": 10000},
      {"compound": "CC(C)(C)NC(=O)[C@@H](c1cccnc1)N(C(=O)c1ccco1)c1ccc(C(C)(C)C)cc1", "note": "[ML 188]", "IC70 values from the original NPACT screen": 1000},
      {"compound": "CC1CCN(c2cc(NC(=O)c3ccccc3)ncn2)CC1", "note": "[ML 340]", "IC70 values from the original NPACT screen": 3000},
      {"compound": "C=C1C(=O)O[C@@H]2[C@H]1CC[C@H](C)[C@]1(CCC(=O)O1)C2(C)O", "note": "(stereo partly shown) [NCGC00380135-02]", "IC70 values from the original NPACT screen": 7000},
      {"compound": "COC(=O)C[C@H]1C(C)(C)[C@H](OC(=O)c2ccccc2)C2CC3=C4CC(=O)O[C@@H](c5ccoc5)[C@]4(C)CCC3[C@@]1(C)C2=O", "note": "(stereo partly shown) [NCGC00384964-01]", "IC70 values from the original NPACT screen": 15000},
      {"compound": "CC(C)(O)C1Cc2c(ccc(C(=O)CCc3ccccc3)c2O)O1", "note": "(stereo not shown) [NCGC00385629-01]", "IC70 values from the original NPACT screen": 800},
      {"compound": "CC(C)C[C@@H](C(=O)N[C@@H](Cc1ccc(OCc2ccccc2)cc1)C(=O)NC(C)(C)C)N(C)Cc1ccc(C(C)(C)C)cc1", "note": "[PD 173212]", "IC70 values from the original NPACT screen": 3000},
      {"compound": "CC(C)NCCCn1c(Sc2cc3c(cc2I)OCO3)nc2c(N)ncnc21", "note": "[PU-H71]", "IC70 values from the original NPACT screen": 500},
      {"compound": "Cc1cccc2c1CC[C@H](CN1CCC(c3c(Cl)cccc3Cl)CC1)C[C@@H]2O", "note": "[SB-612111]", "IC70 values from the original NPACT screen": 8000},
      {"compound": "Cc1ccccc1C#Cc1ccc(CCC(=O)O)cc1", "note": "[TUG-424]", "IC70 values from the original NPACT screen": 3000},
      {"compound": "CCCCCOc1cc2c(cc1-c1cc(/C=C/C(=O)O)ccc1O)C(C)(C)CCC2(C)C", "note": "[UVI 3003]", "IC70 values from the original NPACT screen": 800},
      {"compound": "CC[C@@H](C)Nc1cc(C(=O)N[C@H]2C[C@H]3CC[C@@H](C2)N3c2ccc(C(=O)C3CC3)cn2)c(C)cc1C(N)=O", "note": "[XL-888]", "IC70 values from the original NPACT screen": 500},
      {"compound": "COC(=O)C1=C(C)NC(COC(N)=O)=C(C(=O)OC(C)C)C1c1cccc(Cl)c1Cl", "note": "(stereo not shown) [lemildipine]", "IC70 values from the original NPACT screen": 600},
      {"compound": "c1ccc2c(Oc3nc(Nc4ccc(N5CCOCC5)cc4)c4ncn(C5CCCCC5)c4n3)cccc2c1", "note": "[purmorpharmine]", "IC70 values from the original NPACT screen": 10000}
    ]}
  ]
}
